Assay results from US20150352107A1, “ALPHA7 NEURONAL NICOTINIC RECEPTOR LIGAND AND ANTIPSYCHOTIC COMPOSITIONS” (AbbVie Inc., priority 2005, published 2015).
“Also recorded” adds a separate entry of the source. Where two headings read alike, the source gives them in different places.

What was measured:
[1] = cited from earlier work; for Optimal Dose and/or Minimally Effective Dose / EPS risk: dose of augmented risk: clinical use
[2] = test system: DBA/2J mice; assay: Prepulse inhibition (PPI) of startle in DBA/2 mice; type: in vivo, mouse; settings: for dose at which efficacy was observed in DBA2 mouse PPI: i.p., antipsychotic alone, FIG. 1
Excerpt: Dysfunctions of sensory gating and information processing have been putatively associated with clinical features such as perpetual aberrations, hallucinations and distraction and been considered as potential precursors of sensory overload, cognitive fragmentation and disorganization. Among the physiological measures, one approach has involved the startle reflex with the prepulse inhibition (PPI) paradigm. […] PPI refers to a reduction in the acoustic startle reflex to a loud noise when the loud noise is preceded by a weak auditory stimulus. At short lead intervals, this has the effect of markedly reducing or gating the amplitude of the startle response and increasing its latency. Disruption of PPI occurs with agonists of dopamine and serotonin, and with glutamate/N-methyl D aspartate (NMDA) receptor antagonists, or can be induced by genetic (e.g., DBA2 mouse strain) and experimental manipulations (e.g., rearing rats in isolation, neurotoxic lesions, or other methods). […] (Olivier B., et al., Psychopharmacology (2001) vol. 156:284-290; Ouagazzal A-M., Psychopharmacology (2001) vol. 156:273-283; Simosky J. K., Psychopharmacology (2003) vol. 165:386-396). To accomplish the study, the following materials and methods were used.
Male DBA/2J mice (Jackson Laboratories AX9 facility, Bar Harbor, Me., USA) at age 6-8 weeks old were used for all investigations.
Startle response and PPI were measured using startle chambers from Hamilton Kinder (Poway, Calif., USA). Each chamber contained a plexiglas rectangle with an adjustable ceiling housed in a ventilated, sound-attenuated cubicle. The ceiling was adjusted on an individual (animal by animal) basis to allow for adequate headroom but no rears or extensive locomotion. The chamber was placed over an anchor plate attached to a piezoelectric disk to transduce startle responses to a computer. A loudspeaker located in each chamber delivered the background noise (65 dB), and the acoustic stimuli. A constant white noise was maintained in the experimental room for the duration of the experiment by a white noise generator (Radioshack, USA). Each session was initiated with a 5-minute acclimation period followed by four successive 120 dB, 40 ms trials. These trials were not included in the main analysis, but are referred to as baseline responses. Animals were then presented with 5 different trial types: startle pulse (120 dB, 40), or prepulse stimulus of one of three sound levels (70, 75, or 80 dB) for 20 ms, followed 100 ms later by an acoustic startle (120 dB) for 40 ms. A total of 12 trials under each condition were delivered in a random sequence and all trials were separated by a variable inter-trial interval of 5-25 s. Finally, this sequence ended with the presentation of four 120 dB, 40 ms sound bursts (not included in the main analyses, but included in the baseline or habituation analyses). The animals were injected with the test compounds 30 minutes before the start of the trials. In the startle alone trials, the basic auditory startle, or startle response was measured, and in the prepulse plus startle trials, the levels of PPI was calculated as a percentage score for each acoustic prepulse trial type using (typically) the formula: […].
Data were first analyzed using a two-way repeated measures analysis of variance (ANOVA) with two independent factors. If there was a significant interaction of both factors, subsequent post hoc one-way ANOVAs were performed using each treatment combination as an independent group. All post hoc significance was determined using Fishers protected least significant difference test. (p<0.05 was regarded as significant).
Startle response and PPI were measured using startle chambers from Hamilton Kinder (Poway, Calif., USA). Each chamber contained a plexiglas rectangle with an adjustable ceiling housed in a ventilated, sound-attenuated cubicle. […]

[3] = test system: Sprague Dawley rats; assay: Catalepsy bar test in rats (EPS predictor)
Method: One of the adverse effects of antipsychotic medications is extrapyramidal movement disorder syndrome attributed to blockade of the dopamine D2 receptors. Extrapyramidal movement disorder can be predicted by the cataleptic response elicited by an antipsychotic in a rodent. To assess whether Compound 1 alone evoked cataleptic responses or interfered with the cataleptic effect of the antipsychotic, the following set of studies were conducted. The materials and methods used to accomplish the study follow.
Male Sprague Dawley rats (CRL: CD (SD), Charles River Laboratories, Omaha, Nebr.) weighing 300-325 g were used for the experiment.
Rats were handled and habituated to the testing room before starting. […] The degree of catalepsy was measured by gently placing both forepaws over a metal bar (1.1 cm. diameter suspended 8 cm. above the table top). The time in seconds until the rat took both paws off the bar was recorded, with a maximum cut-off of 300 seconds. […] Alternately, any catalepsy trial time that was greater than 15 seconds (up to 300 seconds) was recorded.
Rats were handled and habituated to the testing room before starting. […] The degree of catalepsy was measured by gently placing both forepaws over a metal bar (1.1 cm. diameter suspended 8 cm. above the table top). The time in seconds until the rat took both paws off the bar was recorded, with a maximum cut-off of 300 seconds. […]

In the case of `O=C1CCc2ccc(OCCCCN3CCN(c4cccc(Cl)c4Cl)CC3)cc2N1` [Arpiprazole], the “Optimal Dose and/or Minimally Effective Dose” value [1] is listed as 15 mg/day.
For `CN1CCN(C2=Nc3cc(Cl)ccc3Nc3ccccc32)CC1` [Clozapine, 8-chloro-11-(4-methyl-1-piperazinyl)-5H-dibenzo[b,e][1,4]diazepine], the “dose at which efficacy was observed in DBA2 mouse PPI” value [2] is listed as 3 mg/kg, the “Optimal Dose and/or Minimally Effective Dose” value [1] is listed as 300 to 400 mg/day and the “Dose of Increased Side Effect Risk” value ([1]; low risk for seizures) is listed as <300 mg/day. The “Dose of Increased Side Effect Risk” value ([1]; moderate risk for seizures) was 300 to 599 mg/day.
In the case of `c1cc2cc(-c3ccc(O[C@H]4CN5CCC4CC5)nn3)ccc2[nH]1` [Compound 1], the “effect on PPI in combination with maximally efficacious haloperidol” value ([2]; Compound 1 0.04-4.0 mg/kg i.p. 10 minutes prior to maximally efficacious dose of haloperidol, FIG. 5) is reported as “significant potentiation of effects; also recorded: does not interfere with the efficacy of haloperidol”, the “effect on PPI in combination with sub efficacious risperidone” value (“effect … with sub efficacious risperidone” for short) ([2]; Compound 1 (0.04 mg/kg) + risperidone 0.1 mg/kg, FIG. 2) is reported as “a maximally efficacious response is achieved; also recorded: boosting the effect of a sub efficacious dose of risperidone” and the “effect on PPI in combination with sub efficacious haloperidol” value ([2]; Compound 1 (0.04-4.0 mg/kg) + haloperidol 0.3 mg/kg, FIG. 4) is reported as “more efficacious; also recorded: boosting the effect of a sub efficacious dose of haloperidol”. For the same compound, the “effect on PPI, alone” value ([2]; Compound 1 alone at 0.04 mg/kg, FIG. 2) was “does not have an effect”.
With `c1ccc(-c2ccc(N3CC4CNCC4C3)nn2)cc1` (centres unmarked) [Compound 2, 2-(6-phenylpyridazin-3-yl)octahydropyrrolo[3,4-c]pyrrole] the “effect … with sub efficacious risperidone” value ([2]; Compound 2 0.4-4.0 mg/kg + risperidone 0.1 mg/kg, FIG. 7) was “attained maximal efficacy; also recorded: potentiates the efficacy of risperidone”, the “effect on PPI, alone” value ([2]; Compound 2 alone 0.04-4.0 mg/kg, FIG. 6) was “no effect” and the “effect on risperidone-induced catalepsy” value ([3]; Compound 2 4.0 mg/kg i.p. + risperidone 2.5 mg/kg i.p., FIG. 11) was “did not significantly alter cataleptic behavior of risperidone”.
For `O=C(N[C@H]1CN2CCC1CC2)c1ccc(Cl)cc1.O=C(O)/C=C/C(=O)O` [Compound 3, N-(3R)-1-azabicyclo[2,2,2]oct-3-yl-4-chlorobenzamide fumarate], the “effect … with sub efficacious risperidone” value ([2]; Compound 3 1.0-10.0 mg/kg + risperidone 0.1 mg/kg, FIG. 9, fumarate) was “attained maximal efficacy; also recorded: boosting the effect of a sub efficacious dose of risperidone”, the “effect on PPI, alone” value ([2]; Compound 3 alone 1.0-10.0 mg/kg, FIG. 8) was “no effect” and the “effect on risperidone-induced catalepsy” value ([3]; Compound 3 3.0 mg/kg i.p. + risperidone 2.5 mg/kg i.p., FIG. 12) was “did not significantly alter cataleptic behavior of risperidone”.
In the case of `O=C(CCCN1CCC(O)(c2ccc(Cl)cc2)CC1)c1ccc(F)cc1` [Haloperidol, 4-(4-[4-chlorophenyl]-4-hydroxy-1-piperidinyl)-1-(4-fluorophenyl)-1-butanone], the “dose at which efficacy was observed in DBA2 mouse PPI” value [2] is listed as 3 mg/kg, the “Optimal Dose and/or Minimally Effective Dose” value [1] is listed as 2 to 5 mg/day and the “Dose of Increased Side Effect Risk” value ([1]; risk for EPS) is listed as ~3 mg.
In the case of `Cc1cc2c(s1)Nc1ccccc1N=C2N1CCN(C)CC1` [Olanzapine, 2-methyl-4-(4-methyl-1-piperazinyl)-10H-thieno[2,3-b][1,5]benzodiazepine], the “EPS risk: dose of augmented risk” value [1] is listed as “risk >7.5 mg/kg/day” and the “Optimal Dose and/or Minimally Effective Dose” value [1] is listed as 10 to 20 mg/day.
For `Cc1nc2n(c(=O)c1CCN1CCC(c3noc4cc(F)ccc34)CC1)CCCC2` [Risperidone, 3-[2-[4-(6-fluoro-1,2-benzisoxazol-3-yl)-1-piperidinyl]ethyl]-6,7,8,9-tetrahydro-2-methyl-4H-pyrido[1,2-a]pyrimidin-4-one], the “Dose of Increased Side Effect Risk” value ([1]; EPS risk) is given as “≧6 mg/day”, the “EPS risk: dose of augmented risk” value [1] is given as “risk >6 mg/kg/day” and the “Optimal Dose and/or Minimally Effective Dose” value [1] is given as 4 to 6 mg/day.
In the case of `O=C1Cc2cc(CCN3CCN(c4nsc5ccccc45)CC3)c(Cl)cc2N1` [Ziprasidone, 5-[2-[4-(1,2-benzoisothiazol-3-yl)-1-piperazinyl]ethyl]-6-chloro-1,3-dihydro-2H-indol-2-one], the “Dose of Increased Side Effect Risk” value ([1]; EPS risk) is given as >80 mg/day, the “EPS risk: dose of augmented risk” value [1] is given as “risk >80 mg/kg/day” and the “Optimal Dose and/or Minimally Effective Dose” value [1] is given as 120 mg/day.
